Test results from ChEMBL document CHEMBL1907987, “Human UDP-glucuronosyltransferases: metabolism, expression, and disease” (Annu Rev Pharmacol Toxicol, 2000).
Several values for one entry are separate records, joined by “and”; a condition that tells them apart may be missing. Identical values can stand only once.

What was measured:
[1] = molecular target: T1, UDP-glucuronosyltransferase 2B7 (Homo sapiens, UniProt P16662); assay: Specific activity of expressed human recombinant UGT2B7Y; format: ADME; settings: recombinant enzyme
T1 sequence (P16662 whole entry): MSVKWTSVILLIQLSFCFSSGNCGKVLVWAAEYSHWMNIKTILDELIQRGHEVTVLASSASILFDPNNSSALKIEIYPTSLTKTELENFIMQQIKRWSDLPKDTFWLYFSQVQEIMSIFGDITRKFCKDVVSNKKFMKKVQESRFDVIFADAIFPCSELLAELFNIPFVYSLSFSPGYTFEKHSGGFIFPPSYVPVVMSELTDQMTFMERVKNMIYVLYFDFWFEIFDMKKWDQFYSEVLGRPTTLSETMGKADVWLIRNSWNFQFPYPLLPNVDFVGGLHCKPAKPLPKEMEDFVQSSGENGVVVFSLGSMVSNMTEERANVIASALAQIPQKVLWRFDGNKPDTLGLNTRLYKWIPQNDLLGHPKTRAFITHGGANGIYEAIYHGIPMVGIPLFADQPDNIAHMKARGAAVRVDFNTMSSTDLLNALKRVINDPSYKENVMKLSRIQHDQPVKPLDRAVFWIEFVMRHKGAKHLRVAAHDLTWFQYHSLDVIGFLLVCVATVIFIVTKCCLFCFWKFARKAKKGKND

[2] = molecular target: T1, UDP-glucuronosyltransferase 2B7; assay: Specific activity of expressed human recombinant UGT2B7H; format: ADME; settings: recombinant enzyme

| SMILES | Activity [1] | Activity [2] |
| --- | --- | --- |
| C=C1CC[C@@]2(O)[C@H]3Cc4ccc(O)c5c4[C@@]2(CCN3CC2CC2)[C@H]1O5 | 625 pm/min/mg | 380 pm/min/mg and 412 pm/min/mg |
| CN1CC[C@]23c4c5ccc(O)c4O[C@H]2[C@@H](O)C=C[C@H]3[C@H]1C5 (stereo in doubt; (+)) [MORPHINE] | 160 pm/min/mg |  |
| CN1CC[C@]23c4c5ccc(O)c4O[C@H]2[C@@H](O)C=C[C@H]3[C@H]1C5 (stereo in doubt; (-)) [MORPHINE] | 3719 pm/min/mg | 2536 pm/min/mg and 2968 pm/min/mg |
| C[C@]12CC[C@@H](O)C[C@@H]1CC[C@@H]1[C@@H]2CC[C@]2(C)C(=O)CC[C@@H]12 (stereo in doubt; form 1) [ANDROSTERONE] | 94 pm/min/mg | 114 pm/min/mg |
| CN1CC[C@]23c4c5ccc(O)c4O[C@H]2C(=O)CC[C@H]3[C@H]1C5 (stereo in doubt; form 1) [HYDROMORPHONE] | 530 pm/min/mg | 617 pm/min/mg and 856 pm/min/mg |
| CN1CC[C@]23c4c5ccc(O)c4O[C@H]2C(=O)CC[C@H]3[C@H]1C5 (stereo in doubt; form 2) [HYDROMORPHONE] | 1550 pm/min/mg |  |
| C[C@]12CC[C@H]3[C@@H](CCC4=CC(=O)CC[C@@]43C)[C@@H]1CC[C@@H]2O (stereo in doubt; form 2) [TESTOSTERONE] | 0 pm/min/mg | 0 pm/min/mg |
| CC1CC[C@H](C(C)C)[C@@H](O)C1 (stereo partly drawn) [(+)-MENTHOL] | 247 pm/min/mg and 147 pm/min/mg | 255 pm/min/mg and 191 pm/min/mg |
| CC1(C)[C@H]2CC[C@]1(C)[C@H](O)C2 [(-)-BORNEOL] | 357 pm/min/mg and 174 pm/min/mg | 388 pm/min/mg and 227 pm/min/mg |
| CO[C@]12CC[C@@]3(C[C@@H]1[C@](C)(O)C(C)(C)C)[C@H]1Cc4ccc(O)c5c4[C@@]3(CCN1CC1CC1)[C@H]2O5 [BUPRENORPHINE] |  | 478 pm/min/mg and 280 pm/min/mg |
| COc1ccc2c3c1O[C@H]1[C@@H](O)C=C[C@H]4[C@@H](C2)N(C)CC[C@@]341 [CODEINE] |  | 80 pm/min/mg and 54 pm/min/mg |
| C[C@]12CC[C@H]3[C@@H](CCC4=CC(=O)CC[C@@]43C)[C@@H]1CC[C@H]2O [EPITESTOSTERONE] | 468 pm/min/mg and 240 pm/min/mg | 360 pm/min/mg |
| CN1CC[C@]23CCCC[C@H]2[C@H]1Cc1ccc(O)cc13 [LEVORPHANOL] | 33 pm/min/mg and 25 pm/min/mg |  |
| Oc1ccc2c3c1O[C@H]1[C@@H](O)CC[C@@]4(O)[C@@H](C2)N(CC2CCC2)CC[C@]314 [NALBUPHINE] | 1100 pm/min/mg | 758 pm/min/mg and 862 pm/min/mg |
| C=CCN1CC[C@]23c4c5ccc(O)c4O[C@H]2[C@@H](O)C=C[C@H]3[C@H]1C5 [NALORPHINE] |  | 1483 pm/min/mg and 1051 pm/min/mg |
| C=CCN1CC[C@]23c4c5ccc(O)c4O[C@H]2C(=O)CC[C@@]3(O)[C@H]1C5 [NALOXONE] |  | 2908 pm/min/mg and 3462 pm/min/mg |
| O=C1CC[C@@]2(O)[C@H]3Cc4ccc(O)c5c4[C@@]2(CCN3CC2CC2)[C@H]1O5 [NALTREXONE] |  | 670 pm/min/mg and 662 pm/min/mg |
| Oc1ccc2c3c1O[C@H]1c4oc5ccccc5c4C[C@@]4(O)[C@@H](C2)N(CC2CC2)CC[C@]314 [NALTRIBEN] | 150 pm/min/mg and 97 pm/min/mg | 0 pm/min/mg |
| Oc1ccc2c3c1O[C@H]1c4[nH]c5ccccc5c4C[C@@]4(O)[C@@H](C2)N(CC2CC2)CC[C@]314 [NALTRINDOLE] | 453 pm/min/mg | 349 pm/min/mg and 456 pm/min/mg |
| COc1ccc2c3c1O[C@H]1[C@@H](O)C=C[C@H]4[C@@H](C2)NCC[C@@]341 [NORCODEINE] | 29 pm/min/mg and 24 pm/min/mg |  |
| Oc1ccc2c3c1O[C@H]1[C@@H](O)C=C[C@H]4[C@@H](C2)NCC[C@@]341 [NORMORPHINE] | 80 pm/min/mg |  |
| CN1CC[C@]23c4c5ccc(O)c4O[C@H]2C(=O)CC[C@@]3(O)[C@H]1C5 [OXYMORPHONE] | 2300 pm/min/mg | 2944 pm/min/mg and 3139 pm/min/mg |
